Data published in patent US8703792B2, “C-1 analogs of pancratistatin and 7-deoxypancratistatin and processes for their preparation” (Brock University, priority 2008, dated 2014).
In brackets after ≈: the same amount, converted by molar mass. Entries after “also recorded” stand apart in the source; their conditions may differ.

Assays:
[1] = tested on: Human prostate carcinoma cells DU-145; assay: MTT assay, prostate DU-145; assay type: cell-based; settings: 48 hrs, read-out: Inhibitory Activities: IC50, prostate DU-145
Description: (§1) Human non-small cell lung cancer line NCI-H460 (ATCC # HTB-177) and human pancreatic adenocarcinoma cancer cell line BxPC-3 (ATCC # CRL-1687) were cultured in RPMI-1640 medium supplemented with 10% fetal bovine serum (FBS) (Gibco, Carlsbad, Calif.), 100 mg/L penicillin G and 100 mg/L streptomycin and (Cellgro, Manassas, Va.). Human prostate carcinoma cells DU-145 (ATCC # HTB-81) were cultured in Dulbecco's modified Eagle Medium (Cellgro) supplemented with 10% FBS, 100 mg/L penicillin G and 100 mg/L streptomycin. Human mammary carcinoma cells MCF-7 (ATCC # HTB-22) were cultured using Dulbecco's modified Eagle Medium supplemented with 10% FBS, 100 mg/L penicillin G, 100 mg/L streptomycin, 1.0 mM Glutamax and 1.0 mM sodium pyruvate, (Gibco).
(§2) In addition, the BxPC-3, […], DU-145 and MCF-7 lines were assessed by seeding 4×10^3 cells per well into microplates. The cells were grown for 24 hrs before treatment at concentrations ranging from 0.01 to 10 μM and incubated for 48 hrs. MTT reagent (5 mg/mL, MP Biomedical, Solon, Ohio) was added to each well and incubated further for 2 hrs. The resulting formazan crystals were dissolved in DMSO and the OD was determined at a wavelength of 490 nm. The experiments were repeated at least twice for each compound per cell line. Cells treated with 0.1% DMSO were used as a control.

[2] = tested on: Human mammary carcinoma cells MCF-7; assay: MTT assay, breast MCF-7; assay type: cell-based; settings: MCF7, 48 hrs, read-out: Inhibitory Activities: IC50, breast MCF-7
Description: as §1, §2

[3] = tested on: Human non-small cell lung cancer line NCI-H460; assay: MTT assay, lung-NSC NCI-H460; assay type: cell-based; settings: 48 hrs, read-out: Inhibitory Activities: IC50, lung-NSC NCl-H460
Description: as §1, §2

[4] = tested on: human pancreatic adenocarcinoma cancer cell line BxPC-3; assay: MTT assay, pancreas BxPC-3; assay type: cell-based; settings: 48 hrs, read-out: Inhibitory Activities: IC50, pancreas BxPC-3
Description: as §1, §2

[5] = tested on: B-cell leukemia (Jurkat) cell line; assay: MTT assay, leukemia Jurkat; assay type: cell-based; settings: Homo sapiens, read-out: Inhibitory Activities: IC50, leukemia Jurkat
Description: (§3) The Human neuroblastoma (SH-SY5Y) and B-cell leukemia (Jurkat) cell lines were purchased from ATCC (Manassas, Va.). Cells were maintained and grown at 37° C., 95% humidity and 5% CO2. Jurkat cells were grown with RPMI-1640 media (Sigma-Aldrich, Oakville, ON, Canada) supplemented with 10% fetal bovine serum (FBS) and 10 mg/ml Gentamycin (Gibco BRL, Mississauga, ON, Canada). SH-SY5Y cells were grown with Dulbecco's Modified Eagles Medium (DMEM) HAM F12 (Sigma-Aldrich), supplemented with 2 mM L-Glutamine, 10 mg/ml Gentamycin, and 10% FBS. Normal Human Fibroblasts (NHFs) obtained from Coriell Institute for Medical Research (New Jersey, USA) were cultured in Earle's Minimum Essential Medium (MEME) (Sigma Chemical Company, Mississauga, Ontario, Canada) completed with 15% fetal bovine serum, 2 mM L-Glutamine, 10 mg/ml Gentamycin, 1.5 g/l sodium bicarbonate, 1% vitamins, and essential (2%) and non-essential amino acids (1%) (Gibco BRL, VWR, Mississauga, ON, Canada).
(§4) To evaluate the cytotoxic effects of the C-1 derivatives of 7-deoxypancratistatin, mitochondrial dehydrogenase activities were measured. Jurkat and SH-SY5Y cells were grown and treated for 24, 48, and 72 hrs. Cells were treated with concentrations ranging from 0.25 to 10 μM of each derivative dissolved in DMSO Similarly, ncPBMCs and NHFs were treated to assess the effects of the C-1 derivatives on non-cancerous cells.

Jurkat cells = assay: Apoptosis induction (Hoechst staining, Annexin-V binding) in Jurkat cells; assay type: cell-based, human; settings: for Apoptotic morphology: 72 hours treatment, Hoechst staining and Annexin-V binding; for EC50: Homo sapiens, 72 hrs exposure, Hoechst staining, read-out: effective dose at which 50% of cells were apoptotic (ED50)
Description: as §3
(§5) Nuclear morphology was visualized using a final concentration of 10 μM of Hoechst 33342 dye (Molecular Probes, Eugene, Oreg., USA). Phosphatidyl serine flipping, (an apoptotic biochemical marker) was visualized with Annexin-V-FITC binding assay as per manufacturer's protocol (Molecular Probes, Eugene Oreg., USA). […] Apoptotic cells were expressed as a percentage of the total number of cells counted. Standard error was calculated from at least 3 separate experiments.

SH-SY5Y cells = assay: Apoptosis induction (Hoechst staining, Annexin-V binding) in SH-SY5Y cells; assay type: cell-based, human; settings: for Apoptotic morphology: 72 hours treatment, Hoechst staining and Annexin-V binding; for EC50: Homo sapiens, 72 hrs exposure, Hoechst staining, read-out: effective dose at which 50% of cells were apoptotic (ED50)
Description: as §3, §5

[6] = tested on: Human neuroblastoma (SH-SY5Y) cell line; assay: MTT assay, neuroblastoma SH-SY5Y; assay type: cell-based; settings: read-out: Inhibitory Activities: IC50, neuroblastoma Shsy5y
Description: as §3, §4

[7] = tested on: normal human fibroblasts (NHFs); assay: Apoptosis induction (Hoechst staining) in normal human fibroblasts; assay type: cell-based
Description: as §3
To evaluate the cytotoxic effects of the C-1 derivatives of 7-deoxypancratistatin, mitochondrial dehydrogenase activities were measured. […]
Nuclear morphology was visualized using a final concentration of 10 μM of Hoechst 33342 dye (Molecular Probes, Eugene, Oreg., USA). […] Apoptotic cells were expressed as a percentage of the total number of cells counted. Standard error was calculated from at least 3 separate experiments.

[8] = tested on: non-cancerous peripheral blood mononuclear cells (ncPBMC); assay: Apoptosis induction (Hoechst staining) in non-cancerous peripheral blood mononuclear cells; assay type: cell-based, human; settings: peripheral blood mononuclear cells from healthy volunteers
From the text: Peripheral blood was obtained from healthy non-smoking volunteers aged 25-50 years upon written and informed consent (University of Windsor REB #04-147). Whole blood samples were collected in BD Vacutainer™ Cell Preparation Tube and mononuclear cells were separated by density gradient centrifugation. The isolated cells were maintained in RPMI 1640 media supplemented and maintained as was the Jurkat culture.
as §4, §5

leukemia P388 = assay: Cancer cell line growth inhibition, leukemia P388; assay type: cell-based, murine; settings: Mus musculus, read-out: Inhibitory Activities: IC50, leukemia P388
colon KM20L2 = assay: Cancer cell line growth inhibition, colon KM20L2; assay type: cell-based; settings: Homo sapiens, KM-20L2; read-out: Inhibitory Activities: IC50, colon KM20L2
CNS SF-268 = assay: Cancer cell line growth inhibition, CNS SF-268; assay type: cell-based; settings: Homo sapiens, read-out: Inhibitory Activities: IC50, CNS SF-268

melting point | Compound | IC50 [1] | IC50 [2] | IC50 [3] | IC50 [4] | IC50 [5] | Apoptotic morphology (Jurkat cells) | EC50 (Jurkat cells) | Apoptotic morphology (SH-SY5Y cells) | EC50 (SH-SY5Y cells) | IC50 [6] | induction of apoptosis in non-cancerous cells [7] | induction of apoptosis in non-cancerous cells [8] | IC50 (leukemia P388) | IC50 (colon KM20L2) | IC50 (CNS SF-268)
> 200 °C | CC(=O)OC[C@H]1[C@H](O)[C@@H](O)[C@@H](O)[C@@H]2NC(=O)c3cc4c(cc3[C@@H]12)OCO4 [I(c), ((1S,2S,3R,4S,4aR,11bR)-2,3,4-trihydroxy-6-oxo-1,2,3,4,4a,5,6,11b-octahydro-[1,3]dioxolo[4,5-j]phenanthridin-1-yl)methyl acetate] | 0.37 µg/mL | 0.29 µg/mL | 0.11 µg/mL | 0.11 µg/mL | 0.183 µg/mL | Apoptotic morphology was observed | 500 nM | Apoptotic morphology was observed | 500 nM | 0.183 µg/mL | did not induce apoptosis; also recorded: does not induce apoptosis | did not induce apoptosis; also recorded: does not induce apoptosis | – | – | –
– | O=C1N[C@H]2[C@H](O)[C@H](O)[C@@H](O)[C@H](O)[C@@H]2c2cc3c(cc21)OCO3 [Compound 4, 7-deoxypancratistatin] | – | – | 0.29 µg/mL (≈ 0.938 µM) | – | – | – | – | – | – | – | – | – | 0.44 µg/mL (≈ 1.42 µM) | 0.22 µg/mL (≈ 0.711 µM) | –
> 200 °C | COC(=O)[C@H]1[C@H](O)[C@@H](O)[C@@H](O)[C@@H]2NC(=O)c3cc4c(cc3[C@H]21)OCO4 | – | – | – | – | – | – | – | – | – | – | – | – | – | – | –
– | O=C1N[C@H]2[C@H](O)[C@H](O)[C@@H](O)[C@H](O)[C@@H]2c2cc3c(c(O)c21)OCO3 [Compound 1, pancratistatin] | 0.016 µg/mL (≈ 0.0492 µM) | 0.032 µg/mL (≈ 0.0984 µM) | 0.048 µg/mL (≈ 0.148 µM) | 0.028 µg/mL (≈ 0.0861 µM) | 0.163 µg/mL (≈ 0.501 µM) | – | – | – | – | 0.163 µg/mL (≈ 0.501 µM) | – | – | 0.039 µg/mL (≈ 0.12 µM) | 0.062 µg/mL (≈ 0.191 µM) | 0.017 µg/mL (≈ 0.0523 µM)

Compound | melting point | IC50 [1] | IC50 [2] | IC50 [3] | IC50 [4] | IC50 [5] | Apoptotic morphology (Jurkat cells) | EC50 (Jurkat cells) | Apoptotic morphology (SH-SY5Y cells) | EC50 (SH-SY5Y cells) | IC50 [6] | induction of apoptosis in non-cancerous cells [7] | induction of apoptosis in non-cancerous cells [8] | IC50 (leukemia P388) | IC50 (colon KM20L2) | IC50 (CNS SF-268)
O=C1N[C@H]2[C@H](O)[C@H](O)[C@@H](O)[C@H](CO)[C@@H]2c2cc3c(cc21)OCO3 [I(d), (1S,2S,3R,4S,4aR,11bR)-2,3,4-trihydroxy-1-(hydroxymethyl)-1,2,3,4,4a, 5-hexahydro-[1,3]dioxolo[4,5-j]phenanthridin-6(11bH)-one] | > 200 °C | 0.26 µg/mL (≈ 0.804 µM) | 0.65 µg/mL (≈ 2.01 µM) | 0.09 µg/mL (≈ 0.278 µM) | 0.19 µg/mL (≈ 0.588 µM) | 1.61 µg/mL (≈ 5 µM) | Apoptotic morphology was observed | 1000 nM | Apoptotic morphology was observed | 10000 nM | 1.61 µg/mL (≈ 5 µM) | – | – | – | – | –
